System: primary cultures of neonatal cortical neurons exposed to 5 μM Aβ25-35
Assay: Protection of cortical neurons against Aβ25-35-induced cell death (MTT reduction analysis)
Format: cell-based, rat
Details: for protected neurons from Aβ damage by: 5 μM Aβ; for cell death (%): then 5 μM Aβ25-35 for 40 h, MTT, mean ± S.D., three experiments
Description: In this study, primary cultures of neonatal cortical neurons from the cerebral cortex of Harlan Sprague-Dawley rat pups at postnatal day were used as target cells. Primary cultures of neonatal cortical neurons were prepared from the cerebral cortex of Harlan Sprague-Dawley rat pups at postnatal day 1. Briefly, each pup was decapitated and the cortex was digested in 0.5 mg/mL papain at 37° C. for 15 min. The tissue was dissociated in Hibernate A medium (containing B27 supplement) by aspirating trituration to separate cells. Cells were plated (at the density of 5×10^4 cells/cm^2) onto poly-D-lysine-coated dishes and maintained in Neurobasal medium containing B27 supplement, 10 units/mL penicillin, […], and 0.5 mg/mL glutamine (5% CO2/9% O2) for 3 days. Cells were then exposed to cytosine-β-D-arabinofuranoside (5 μM) for 1 day to inhibit proliferation of non-neuronal cells. The cells were used for the experiment on the fifth day.
The effects of isolated pure compounds on Aβ25-35-treated cell apoptosis were determined by a MTT method for evaluating neuroprotective activity. The mitochondrial dehydrogenase activity was assayed by reduction cleavage of the tetrazolium salt MTT (3-[4,5-dimethylthiazol-2-yl]-2,5-diphenyltetrazolium bromide), to yield a purple dye with absorbance read at about 570 nm. Results are expressed as percentage of control absorbance. Cortical neurons prepared as described above were incubated with vehicle (0.1% DMSO) or various concentrations of the compounds for 2 h then exposed to 5 μM Aβ for 40 h. The cell viability was assessed by MTT reduction analysis. Cells were incubated with minimum essential medium containing 0.5 mg/mL MTT for 1 h. The medium was aspirated, and the formazan particle was dissolved with DMSO. The absorbance at 600 nm was measured using an enzyme-linked immunosorbent assay reader. Results are expressed as means±S.D. and were analyzed by ANOVA with post hoc multiple comparison with a Bonferroni test.

Compound	protected neurons from Aβ damage by (at concentration of 5 μM)	cell death (%) (compound 1 μM for 2 h)	cell death (%) (compound 5 μM for 2 h)	cell death (%) (compound 10 μM for 2 h)	cell death (%) (compound 20 μM for 2 h)	protected neurons from Aβ damage by (at concentration of 10 μM)	protected neurons from Aβ damage by (at concentration of 20 μM)
C=C1CCC2[C@@](C)(CO)CCC[C@]2(C)[C@H]1CCC1CCOC1=O (some centres unmarked) [Compound 1, 19-hydroxylabda-8(17)-en-16,15-olide]	25.3%	34.4 ± 3.4%	25.3 ± 5.7 %	28.1 ± 5.7 %	30.8 ± 5.0 %		
C=C1CC[C@@H]2[C@](C)(CC[C@H](O)[C@]2(C)CO)[C@H]1/C=C/[C@@H]1CCOC1=O [Compound 2, 3β,19-dihydroxylabda-8(17), 11E-dien-16,15-olide]		43.8 ± 9.5%	34.9 ± 2.6%	29.5 ± 6.4 %	26.3 ± 9.4 %	29.5%	
C=C1CC[C@@H]2[C@](C)(CC[C@H](O)[C@]2(C)CO)[C@H]1/C=C/C1CCOC1=O (stereo partly drawn) [Compound 3, 13-epi-3β,19-dihydroxylabda-8(17), 11E-dien-16,15-olide]		45.1 ± 3.5%	39.6 ± 3.4%	36.7 ± 8.7%	29.3 ± 10.6 %	36.7%	
C=C1CC[C@H]2[C@@](C)(CO)CCC[C@]2(C)[C@H]1CCC1=CCOC1=O [Compound 4, 19-hydroxylabda-8(17),13-dien-16,15-olide]		41.2 ± 3.4%	34.8 ± 3.2%	28.9 ± 8.1 %	32.6 ± 7.2 %	28.9%	
C=C1CCC2C(C)(CO)C(O)CCC2(C)C1C=CC1=CCOC1=O (centres unmarked) [Compound 5, 14-deoxy-11,12-didehydroandrographolide]		40.7 ± 3.3%	35.7 ± 1.9%	30.8 ± 5.7 %	29.5 ± 5.0 %		29.5%
Ac-DEVD-CHO [reference compound]		35.8 ± 3.5%	30.2 ± 5.5 %	24.5 ± 4.6 %	23.1 ± 1.6 %		

Source: US7745647B2, “Diterpenes from the fruiting body of Antrodia camphorata and pharmaceutical compositions thereof” (Kang Jian Biotech Corp, Ltd., priority 2006, dated 2010)
